In ChEMBL document CHEMBL1125364, “Thromboxane receptor antagonism combined with thromboxane synthase inhibition. 3. Pyridinylalkyl-substituted 8-[(arylsulfonyl)amino]octanoic acids” (J Med Chem, 1992):

Columns and labels:
[1] = species on record: Homo sapiens; assay: The compound was tested in vitro for its inhibitory activity against U 46619-induced aggregation of washed human platelets.; format: functional
[2] = target: T1, Thromboxane-A synthase (Homo sapiens, UniProt P24557); assay: The compound was tested in vitro for its inhibitory activity against thromboxane synthase A2 (TXA2)
T1 sequence (P24557 whole entry): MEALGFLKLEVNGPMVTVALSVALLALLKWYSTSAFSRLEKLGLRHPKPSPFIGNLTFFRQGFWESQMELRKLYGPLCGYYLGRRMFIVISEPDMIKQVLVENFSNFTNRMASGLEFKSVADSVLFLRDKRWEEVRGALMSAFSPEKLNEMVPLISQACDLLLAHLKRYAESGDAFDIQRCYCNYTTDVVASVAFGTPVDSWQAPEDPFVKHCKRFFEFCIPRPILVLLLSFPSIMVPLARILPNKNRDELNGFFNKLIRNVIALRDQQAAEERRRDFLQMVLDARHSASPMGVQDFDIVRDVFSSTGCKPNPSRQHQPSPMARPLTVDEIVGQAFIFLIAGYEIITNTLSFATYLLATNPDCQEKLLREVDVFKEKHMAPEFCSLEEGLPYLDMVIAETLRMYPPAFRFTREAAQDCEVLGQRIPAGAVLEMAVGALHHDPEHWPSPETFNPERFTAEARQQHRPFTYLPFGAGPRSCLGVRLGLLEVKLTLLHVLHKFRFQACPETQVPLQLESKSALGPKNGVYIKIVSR

[3] = species on record: Homo sapiens; assay: The compound was tested in vitro for its inhibitory activity against U 46619-induced aggregation of human platelet rich plasma (PRP).; format: functional
[4] = species on record: Canis familiaris; details: Canis lupus familiaris; Saphenous vein; filed as agonist
[5] = species on record: Canis familiaris; assay: The compound was tested in vitro for its antagonistic activity against U 46619-induced contraction of saphenous vein in dog; agonist activity was observed at e-6 - e-7; details: Canis lupus familiaris, filed as agonist
[6] = species on record: Canis familiaris; assay: The compound was tested in vitro for its inhibitory activity against U 46619-induced contraction of saphenous vein in dog.; format: functional; details: Canis lupus familiaris, read-out: pA2 (converted)

SMILES	IC50 [1] [nM]	IC50 [2] [nM]	IC50 [3] [nM]	pA2 [4]	pA2 [5]	Kb [6] [nM]
O=C(O)CCCCCC(CNS(=O)(=O)c1ccc(Cl)cc1)c1cccnc1 (centres undefined)	20	220	280	–	Agonist	–
O=C(O)CCCCC(CCNS(=O)(=O)c1ccc(Cl)cc1)Cc1cccnc1 (centres undefined)	117	14	370	–	–	11.7
O=C(O)CC(CCCCCNS(=O)(=O)c1ccc(Cl)cc1)CCCCc1cccnc1 (centres undefined)	1390	100	–	–	–	–

Now from value to molecule, other results behind:

IC50 [1] [nM]	IC50 [2] [nM]	IC50 [3] [nM]	SMILES	pA2 [4]	pA2 [5]	Kb [6] [nM]
300	4	–	O=C(O)C(CCCCCCNS(=O)(=O)c1ccc(Cl)cc1)CCCCCc1cccnc1 (centres undefined)	–	–	–
27	> 500	600	O=C(O)CCCCCCC(NS(=O)(=O)c1ccc(Cl)cc1)c1cccnc1 (centres undefined)	Agonist	–	–
220	20	4600	O=C(O)CCCC(CCCNS(=O)(=O)c1ccc(Cl)cc1)CCc1cccnc1 (centres undefined)	–	–	1.74
19	2	390	O=C(O)CCC(CCCCNS(=O)(=O)c1ccc(Cl)cc1)CCCc1cccnc1 (centres undefined)	–	–	1.26
